Experimental data taken from PMC6130518, “Investigation of the effective components of the flowers of Trollius chinensis from the perspectives of intestinal bacterial transformation and intestinal absorption” (Pharmaceutical Biology, 2017).
Entries after “also recorded” stand apart in the source; their conditions may differ.

Key:
[1] = system: everted gut sacs (jejunum); assay: Absorption experiment with everted gut sacs; conditions: for transport percentage: Everted gut sacs, AP→BL; for After transported with everted gut sacs: intestinal bacterial transformed AEOF
[2] = Absorption experiment with everted gut sacs; conditions: Sprague-Dawley, rat
[3] = system: Caco-2 cell monolayers; assay: Transport experiment with Caco-2 cell monolayers; conditions: for transport percentage: Caco-2 cell monolayers; for After transported with Caco-2 cell monolayers: intestinal bacterial transformed AEOF
Method: (§1) The Caco-2 cells were cultured in the culture medium consisting of Dulbecco’s Modified Eagle Medium (DMEM, Gibco Inc., Grand Island, CA)-fetal bovine serum (FBS, Gibco Inc., Grand Island, CA)-nonessential amino acids (NEAA, Corning Costar, Cambridge, MA)-‘penicillin-streptomycin’ (Corning Costar, Cambridge, MA) (100:10:1:1, v/v/v/v) in 25 cm^2 flasks, which were incubated in 5% CO2 and constant temperature (37 °C) and humidity in the incubator. The culture medium was replaced every 2 or 3 days, and the cells were split 1:2 or 1:3 to conduct passage when they reached 80% confluence.
(§2) About 1.5 mL of the culture medium was added into the basal (BL) side of each well of the 12-well Transwell plates (insert diameter 12 mm, pore size 3.0 μm, membrane growth area 1.12 cm^2, Corning Costar, Cambridge, MA), and 0.5 mL of the Caco-2 cell suspension at the density of 2.0 × 10^5 cells/mL was seeded into the apical (AP) side of each insert. The cells were incubated in 5% CO2 and constant temperature (37 °C) and humidity in the incubator. The culture medium in both AP and BL sides was replaced every other day in the first week, then that in AP side was replaced every day and that in BL side was replaced every other day. The cells would differentiate and form a confluent monolayer. The integrity and viability of the cell monolayers were evaluated by measuring transepithelial electrical resistance (TEER) values in the culture medium at 37 °C using a Millicell®-ERS system (Millipore Corp., Bedford, MA), and only the inserts with the TEER above 600 Ω/cm^2 on day 21 were selected to perform the transport experiment.
(§3) About 200 μL of the solution in the receiving chambers was collected at 30, 60, 90, 120, 150, and 180 min, respectively, and then the same volume of HBSS was added. All samples were stored at −20 °C and filtered through a 0.45 μm membrane filter for HPLC analysis.
(§4) The HPLC conditions used for the analysis of the intestinal bacterial transformed AEOF before and after transport experiment was the same as above.
(§5) The transport percentage (%) was calculated using the formula transport percentage (%) = dQ/(C0 × V) × 100, wherein, V (mL) represented the volume of the donor compartment.

[4] = Transport experiment with Caco-2 cell monolayers; conditions: human, Caco-2, Papp, Caco-2 cell monolayers; for Papp at 180 min, 10 mg/mL: extract 10 mg/mL; for Papp at 180 min, 20 mg/mL: extract 20 mg/mL; for Papp at 180 min, 30 mg/mL: extract 30 mg/mL
Method: as §1, §2, §3, §4, §5

[5] = system: activated intestinal bacteria; assay: Intestinal bacterial transformation of AEOF; type: in vitro ADME, human; conditions: for After transformed by intestinal bacteria / Before transformed by intestinal bacteria: content in the extract; for transformation by intestinal bacteria (in words): in AEOF 15.0, 30.0, 60.0 mg/mL, up to 72 h, single person derived- or multiple people-derived intestinal bacteria
Method: Each 3 g of fresh feces from 3 healthy men and 3 healthy women of 23–25 years old was suspended in 200 mL of general anaerobic medium (GAM, including L-cystine hydrochloride, soluble starch, pepsin, tryptone, peptone, soy peptone, serum powder, yeast extract, beef extract, and beef liver extract powder purchased from Beijing Aoboxing Biotechnology Co., Ltd, Beijing, China) broth prepared as per a literature (Yang & Xu [2011]), respectively, and cultured in an anaerobic incubator (Shanghai Cimomedical Appliance Co., Ltd., Shanghai, China) at 37 °C for 24 h (Tsuchihashi et al. [2009]). […] Each 100 μL of the activated intestinal bacteria from the 6 volunteers were added into 11.4 mL of GAM, mixed adequately, and incubated in the same conditions as previously to obtain the mixture of activated intestinal bacteria. About 0.4513, 0.9026, and 1.8052 g of AEOF were dissolved in 30 mL of GAM on a super clean bench (Beijing Great Wall Air Purification Co. Ltd., Beijing, China), respectively, to generate the experimental groups. Then, the triplicate GAM containing AEOF was divided into 24 screw-cap test tubes, and each screw-cap test tube had 3 mL of the GAM and 100 μL of the activated intestinal bacteria and the mixture of activated intestinal bacteria, respectively. They were incubated under the same condition, and the test tubes of each concentration in triplicate were removed from the anaerobic incubator at 0, 2, 4, 6, 12, 24, 48, and 72 h. About 100 μL of the bacterial suspension was replaced with GAM to obtain the control group. The GAM absent of the AEOF was used as the blank group. […] About 300 μL of the supernatant was collected, filtered through a 0.45 μm membrane filter, and stored at −20 °C before HPLC analysis.
The HPLC analysis was performed using a Waters 1500 series (Waters Business Operations, Milford, MA) equipped with a 1525 binary HPLC pump, an on-line degasser, a manual injector and a 2489 UV/Visible detector. […] The temperature was set at 35 °C and the UV detecting wavelengths were 254 and 365 nm. The mobile phase consisted of acetonitrile (HPLC grade, Fisher Co., Pittsburgh, PA) (A) and 1.0% acetic acid (Beijing Chemical Works, Beijing, China) in purified water (v/v) (B), and the gradient elution program was as follows: 5–10% A (0–5 min), 10–20% A (5–10 min), 20–25% A (10–22 min), 25–40% A (22–35 min), 40–50% A (35–40 min), and 50–5% A (40–42 min) at a flow rate of 1.0 mL/min. The volume injected was 5 μL.

[6] = previous study, ref Liu et al. [2015]; cited from earlier work
[7] = first of three lines per compound (lowest concentration; 10, 20, 30 mg/mL)
[8] = second of three lines per compound (middle concentration, not given)
[9] = third of three lines per compound (highest concentration, not given)
[10] = first of three lines per compound (lowest extract concentration)
[11] = first of three lines per compound (lowest extract concentration; AEOF 15, 30, 60 mg/mL)
[12] = second of three lines per compound (middle extract concentration, not given)
[13] = third of three lines per compound (highest extract concentration, not given)

In the case of `O=c1cc(-c2ccc(O)cc2)oc2c([C@@H]3O[C@H](CO)[C@@H](O)[C@H](O)[C@H]3O)c(O)cc(O)c12` [vitexin], the transport percentage ([1]; extract 10 mg/mL) is reported as 5.55%, the transport percentage ([1]; extract 20 mg/mL) is reported as 2.94% and the transport percentage ([1]; extract 30 mg/mL) is reported as 7.55%. For the same molecule, the “After transported with everted gut sacs” value [1, 7] was 0.11 µg/mL, the “After transported with everted gut sacs” value [1, 8] was 0.14 µg/mL and the “After transported with everted gut sacs” value [1, 9] was 0.50 µg/mL. It also gave a Papp at 180 min, 10 mg/mL [2] of 26 ± 2.8 ×10⁻⁶ cm/s, a Papp at 180 min, 20 mg/mL [2] of 15.5 ± 1.1 ×10⁻⁶ cm/s and a Papp at 180 min, 30 mg/mL [2] of 38.1 ± 5 ×10⁻⁶ cm/s. The transport percentage ([3]; extract 10 mg/mL, AP→BL) was 47.97%, the transport percentage ([3]; extract 10 mg/mL, BL→AP) was 11.43% and the transport percentage ([3]; extract 20 mg/mL, AP→BL) was 16.41%. It also gave a transport percentage ([3]; extract 20 mg/mL, BL→AP) of 6.61%, a transport percentage ([3]; extract 30 mg/mL, AP→BL) of 40.90% and a transport percentage ([3]; extract 30 mg/mL, BL→AP) of 8.74%. For the same molecule, the “After transported with Caco-2 cell monolayers” value [3, 7] was 0.19 µg/mL, the “After transported with Caco-2 cell monolayers” value [3, 8] was 0.23 µg/mL and the “After transported with Caco-2 cell monolayers” value [3, 9] was 0.39 µg/mL. The Papp at 180 min, 10 mg/mL ([4]; AP→BL) was 39.6 ± 0.5 ×10⁻⁶ cm/s, the Papp at 180 min, 10 mg/mL ([4]; BL→AP) was 28.3 ± 2.7 ×10⁻⁶ cm/s and the Papp at 180 min, 20 mg/mL ([4]; AP→BL) was 13.6 ± 1.5 ×10⁻⁶ cm/s. For the same molecule, the Papp at 180 min, 20 mg/mL ([4]; BL→AP) was 16.4 ± 0.5 ×10⁻⁶ cm/s, the Papp at 180 min, 30 mg/mL ([4]; AP→BL) was 33.8 ± 2.8 ×10⁻⁶ cm/s and the Papp at 180 min, 30 mg/mL ([4]; BL→AP) was 21.6 ± 0.5 ×10⁻⁶ cm/s. The “After transformed by intestinal bacteria” value [5, 10] was 3.10 µg/mL, the “Before transformed by intestinal bacteria” value (from here on “Before transformed”) [5, 11] was 2.98 µg/mL and the “After transformed by intestinal bacteria” value [5, 12] was 5.70 µg/mL. For the same molecule, the “Before transformed” value [5, 12] was 5.11 µg/mL, the “After transformed by intestinal bacteria” value [5, 13] was 11.19 µg/mL and the “Before transformed” value [5, 13] was 11.04 µg/mL. For the same molecule, the “transformation by intestinal bacteria (in words)” value [5] was “not transformed; also recorded: not changed” and the absorption mechanism [6] was “transporter mediated efflux in addition to passive diffusion”.

For `O=c1cc(-c2ccc(O)c(O)c2)oc2c([C@@H]3O[C@H](CO)[C@@H](O)[C@H](O)[C@H]3O)c(O)cc(O)c12` [orientin], the transport percentage ([1]; extract 10 mg/mL) was 4.67%, the transport percentage ([1]; extract 20 mg/mL) was 3.50% and the transport percentage ([1]; extract 30 mg/mL) was 6.75%. The “After transported with everted gut sacs” value [1, 7] was 0.32 µg/mL, the “After transported with everted gut sacs” value [1, 8] was 0.49 µg/mL and the “After transported with everted gut sacs” value [1, 9] was 1.04 µg/mL. The Papp at 180 min, 10 mg/mL [2] was 21.9 ± 2.4 ×10⁻⁶ cm/s, the Papp at 180 min, 20 mg/mL [2] was 18.5 ± 0.1 ×10⁻⁶ cm/s and the Papp at 180 min, 30 mg/mL [2] was 34 ± 3.4 ×10⁻⁶ cm/s. It also gave a transport percentage ([3]; extract 10 mg/mL, AP→BL) of 30.53%, a transport percentage ([3]; extract 10 mg/mL, BL→AP) of 7.73% and a transport percentage ([3]; extract 20 mg/mL, AP→BL) of 16.39%. For the same molecule, the transport percentage ([3]; extract 20 mg/mL, BL→AP) was 4.76%, the transport percentage ([3]; extract 30 mg/mL, AP→BL) was 23.54% and the transport percentage ([3]; extract 30 mg/mL, BL→AP) was 6.56%. The “After transported with Caco-2 cell monolayers” value [3, 7] was 0.33 µg/mL, the “After transported with Caco-2 cell monolayers” value [3, 8] was 0.35 µg/mL and the “After transported with Caco-2 cell monolayers” value [3, 9] was 0.82 µg/mL. The Papp at 180 min, 10 mg/mL ([4]; AP→BL) was 25.3 ± 0.3 ×10⁻⁶ cm/s, the Papp at 180 min, 10 mg/mL ([4]; BL→AP) was 19.2 ± 1.4 ×10⁻⁶ cm/s and the Papp at 180 min, 20 mg/mL ([4]; AP→BL) was 13.5 ± 0.2 ×10⁻⁶ cm/s. It also gave a Papp at 180 min, 20 mg/mL ([4]; BL→AP) of 11.8 ± 0.2 ×10⁻⁶ cm/s, a Papp at 180 min, 30 mg/mL ([4]; AP→BL) of 19.5 ± 1.4 ×10⁻⁶ cm/s and a Papp at 180 min, 30 mg/mL ([4]; BL→AP) of 16.3 ± 0.6 ×10⁻⁶ cm/s. The “After transformed by intestinal bacteria” value [5, 10] was 11.83 µg/mL, the “Before transformed” value [5, 11] was 10.27 µg/mL and the “After transformed by intestinal bacteria” value [5, 12] was 20.38 µg/mL. For the same molecule, the “Before transformed” value [5, 12] was 20.33 µg/mL, the “After transformed by intestinal bacteria” value [5, 13] was 43.42 µg/mL and the “Before transformed” value [5, 13] was 43.87 µg/mL. For the same molecule, the “transformation by intestinal bacteria (in words)” value [5] was “not transformed; also recorded: not changed” and the absorption mechanism [6] was “transporter mediated efflux in addition to passive diffusion”.
